# Experimental data published in ChEMBL document CHEMBL5550124, “Structure-activity relationship studies of tetrahydroquinolone derivatives as GPR41 modulators” (Bioorg Med Chem Lett, 2024).
# Active and inactive are the calls of the source. The rule behind the calls is not given here.
# What was measured:
# Format in all cases: functional, cell-based
# [1] = molecular target: T1, Free fatty acid receptor 3 (Homo sapiens) (UniProt O14843); test: Antagonist activity at doxycyclin-induced GPR41 (unknown origin) overexpressed in HEK293 cells assessed as increase in forskolin/propionate-induced cAMP level at 1 uM
# T1 sequence (whole entry): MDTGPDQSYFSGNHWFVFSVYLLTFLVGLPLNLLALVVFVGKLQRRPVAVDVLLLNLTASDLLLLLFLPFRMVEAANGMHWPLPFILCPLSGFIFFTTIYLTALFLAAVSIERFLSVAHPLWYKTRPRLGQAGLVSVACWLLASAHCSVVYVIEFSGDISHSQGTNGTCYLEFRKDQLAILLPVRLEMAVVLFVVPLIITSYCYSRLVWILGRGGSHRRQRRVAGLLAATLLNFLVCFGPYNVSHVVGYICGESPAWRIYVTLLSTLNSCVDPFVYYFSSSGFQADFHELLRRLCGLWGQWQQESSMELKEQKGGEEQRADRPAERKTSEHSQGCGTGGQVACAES
# [2] = molecular target: T1, Free fatty acid receptor 3 (Homo sapiens); test: Agonist activity at doxycyclin-induced GPR41 (unknown origin) overexpressed in HEK293 cells assessed as decrease in forskolin-induced cAMP level at 1 uM
# [3] = molecular target: T1, Free fatty acid receptor 3 (Homo sapiens); test: Agonist activity at GPR41 (unknown origin) overexpressed in HEK293 cells assessed as decrease in forskolin-induced cAMP level
# [4] = molecular target: T1, Free fatty acid receptor 3 (Homo sapiens); test: Agonist activity at doxycyclin-induced GPR41 (unknown origin) overexpressed in HEK293 cells assessed as decrease in forskolin-induced cAMP level at 30 uM
# [5] = molecular target: T2, Free fatty acid receptor 2 (Homo sapiens) (UniProt O15552); test: Agonist activity at GPR43 (unknown origin) overexpressed in HEK293 cells assessed as decrease in forskolin-induced cAMP level at 1 uM
# T2 sequence (whole entry): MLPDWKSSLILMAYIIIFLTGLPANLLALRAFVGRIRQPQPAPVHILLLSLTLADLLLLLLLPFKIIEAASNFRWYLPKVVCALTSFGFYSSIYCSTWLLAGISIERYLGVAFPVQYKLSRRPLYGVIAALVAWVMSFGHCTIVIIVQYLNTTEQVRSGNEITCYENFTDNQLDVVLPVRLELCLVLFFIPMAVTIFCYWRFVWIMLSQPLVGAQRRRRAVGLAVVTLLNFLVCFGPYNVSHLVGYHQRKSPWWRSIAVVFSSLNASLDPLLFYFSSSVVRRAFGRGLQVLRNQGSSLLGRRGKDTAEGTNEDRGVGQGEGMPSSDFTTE
# [6] = molecular target: T3, Free fatty acid receptor 3 (Homo sapiens, UniProt O14843); test: Agonist activity at doxycyclin-induced GPR41 (unknown origin) overexpressed in HEK293 cells assessed as decrease in forskolin-induced cAMP level
# T3 sequence (O14843 whole entry): T1 sequence (whole entry)
# [7] = molecular target: T1, Free fatty acid receptor 3 (Homo sapiens); test: Agonist activity at doxycyclin-induced GPR41 (unknown origin) overexpressed in HEK293 cells assessed as decrease in forskolin-induced cAMP level at 10 uM; conditions: filed as agonist
compound,measurement,setting,value
CC1=C(C(=O)Nc2ccccc2C)C(c2ccc(-c3ccccc3F)o2)C2=C(CCCC2=O)N1 (stereo unspecified),Activity,[1],inactive
CC1=C(C(=O)Nc2ccccc2C)C(c2ccc(-c3ccco3)o2)C2=C(CCCC2=O)N1 (stereo unspecified),Activity,[1],inactive
CC1=C(C(=O)Nc2ccccc2C)C(c2ccc(-c3ccccc3Cl)o2)C2=C(CCCC2=O)N1 (stereo unspecified),Activity,[1],inactive
CC1=C(C(=O)Nc2ccccc2C)C(c2ccc(-c3c(F)cccc3F)o2)C2=C(CCCC2=O)N1 (stereo unspecified),Activity,[2],inactive
CC1=C(C(=O)Nc2ccccc2C)C(c2ccc(-c3cccc(C(F)(F)F)c3)o2)C2=C(CCCC2=O)N1 (stereo unspecified),Activity,[1],inactive
CC1=C(C(=O)Nc2cc(Cl)ccc2Cl)C(c2ccc(-c3ccc(F)c(F)c3)o2)C2=C(CCCC2=O)N1 (stereo unspecified),Activity,[3],inactive
same,Activity,[4],inactive
CC1=C(C(=O)Nc2ccccc2C)C(c2ccc(-c3ccccc3OC(F)(F)F)o2)C2=C(CCCC2=O)N1 (stereo unspecified),Activity,[1]; filed as antagonist,Active
CC1=C(C(=O)Nc2ccccc2C)C(c2ccc(-c3ccccc3C#N)o2)C2=C(CCCC2=O)N1 (stereo unspecified),Activity,[1],inactive
CC1=C(C(=O)Nc2cc(Cl)ccc2Cl)C(c2ccco2)C2=C(CCCC2=O)N1 (stereo unspecified),Activity,[5],inactive
same,Activity,[1],inactive
same,EC50,[6],0.741 µM
CC1=C(C(=O)Nc2cc(Cl)ccc2Cl)C(c2ccc(-c3cc(F)c(F)c(F)c3)o2)C2=C(CCCC2=O)N1 (stereo unspecified),Activity,[3],inactive
same,Activity,[4],inactive
CCC(=O)O,Activity,[5]; filed as agonist,Active
same,Activity,[1],inactive
CC1=C(C(=O)Nc2ccccc2C)C(c2ccc(-c3ccc(C)cc3)o2)C2=C(CCCC2=O)N1 (stereo unspecified),Activity,[1],inactive
CC1=C(C(=O)Nc2ccccc2C)C(c2ccc(-c3cc(Cl)cc(Cl)c3)o2)C2=C(CCCC2=O)N1 (stereo unspecified),Activity,[2],inactive
COc1cc(OC)cc(-c2ccc(C3C(C(=O)Nc4ccccc4C)=C(C)NC4=C3C(=O)CCC4)o2)c1 (stereo unspecified),Activity,[1],inactive
CC1=C(C(=O)Nc2ccccc2C)C(c2ccc(-c3cc(C)cc(C)c3)o2)C2=C(CCCC2=O)N1 (stereo unspecified),Activity,[1],inactive
CC1=C(C(=O)Nc2ccccc2C)C(c2ccc(-c3cccc(C#N)c3)o2)C2=C(CCCC2=O)N1 (stereo unspecified),Activity,[1],inactive
CC1=C(C(=O)Nc2cc(Cl)ccc2Cl)C(c2ccc(-c3cc(F)cc(F)c3)o2)C2=C(CCCC2=O)N1 (stereo unspecified),Activity,[3],inactive
same,Activity,[4],inactive
CC1=C(C(=O)Nc2ccccc2C)C(c2ccc(-c3ccccc3)o2)C2=C(CCCC2=O)N1 (stereo unspecified),Activity,[7],Active
same,Activity,[1],inactive
CC1=C(C(=O)Nc2ccccc2C)C(c2ccc(-c3ccccc3C(F)(F)F)o2)C2=C(CCCC2=O)N1 (stereo unspecified),Activity,[1],inactive
CC1=C(C(=O)Nc2ccccc2C)C(c2ccc(-c3ccc(F)c(F)c3F)o2)C2=C(CCCC2=O)N1 (stereo unspecified),Activity,[2]; filed as agonist,Active
same,Activity,[5],inactive
same,Activity,[3],inactive
same,EC50,[6],5.51 µM
CC1=C(C(=O)Nc2ccccc2C)C(c2ccc(-c3ccc(Cl)cc3)o2)C2=C(CCCC2=O)N1 (stereo unspecified),Activity,[1],inactive
CC1=C(C(=O)Nc2ccccc2C)C(c2ccc(-c3cc(F)c(F)c(F)c3)o2)C2=C(CCCC2=O)N1 (stereo unspecified),Activity,[2]; filed as agonist,Active
same,Activity,[5],inactive
same,Activity,[3],inactive
same,EC50,[6],5.89 µM
CC1=C(C(=O)Nc2ccccc2C)C(c2ccc(-c3ccc(F)cc3)o2)C2=C(CCCC2=O)N1 (stereo unspecified),Activity,[1],inactive
CC1=C(C(=O)Nc2cc(Cl)ccc2Cl)C(c2ccc(-c3ccc(F)c(F)c3F)o2)C2=C(CCCC2=O)N1 (stereo unspecified),Activity,[5],inactive
same,Activity,[3],inactive
same,EC50,[6],0.447 µM
CC1=C(C(=O)Nc2ccccc2C)C(c2ccc(-c3cccc(F)c3)o2)C2=C(CCCC2=O)N1 (stereo unspecified),Activity,[1],inactive
CC1=C(C(=O)Nc2ccccc2C)C(c2ccc(-c3ccc(F)cc3F)o2)C2=C(CCCC2=O)N1 (stereo unspecified),Activity,[2]; filed as agonist,Active
CC1=C(C(=O)Nc2ccccc2C)C(c2ccc(-c3cc(C(F)(F)F)cc(C(F)(F)F)c3)o2)C2=C(CCCC2=O)N1 (stereo unspecified),Activity,[1],inactive
CC1=C(C(=O)Nc2ccccc2C)C(c2ccc(-c3ccc(C(F)(F)F)cc3)o2)C2=C(CCCC2=O)N1 (stereo unspecified),Activity,[2]; filed as agonist,Active
same,Activity,[1],inactive
CC1=C(C(=O)Nc2ccccc2C)C(c2ccc(-c3ccc(F)c(F)c3)o2)C2=C(CCCC2=O)N1 (stereo unspecified),Activity,[2]; filed as agonist,Active
same,Activity,[5],inactive
same,Activity,[3],inactive
same,EC50,[6],3.4 µM
CC1=C(C(=O)Nc2ccccc2C)C(c2ccc(-c3cccc(Cl)c3)o2)C2=C(CCCC2=O)N1 (stereo unspecified),Activity,[1],inactive
COc1cccc(-c2ccc(C3C(C(=O)Nc4ccccc4C)=C(C)NC4=C3C(=O)CCC4)o2)c1 (stereo unspecified),Activity,[1],inactive
CC1=C(C(=O)Nc2ccccc2C)C(c2ccc(-c3ccsc3)o2)C2=C(CCCC2=O)N1 (stereo unspecified),Activity,[1],inactive
CC1=C(C(=O)Nc2ccccc2C)C(c2ccc(-c3cc(F)cc(F)c3)o2)C2=C(CCCC2=O)N1 (stereo unspecified),Activity,[2]; filed as agonist,Active
same,Activity,[5],inactive
same,Activity,[3],inactive
same,Activity,[1],inactive
same,EC50,[6],0.679 µM
